Measured values from patent publication US4690938A, “Anti-hypertensive agents” (University of Miami, priority 1979, dated 1987).
pIC50: −log10 of the molar value.

Assays:
[1] = target: T1, angiotensin converting enzyme (human urinary ACE) (Homo sapiens, UniProt P12821); experiment: ACE activity assay: hydrolysis of Benzoyl-GlyHisLeu by ACE purified from human urine; type: biochemical; details: Benzoyl-GlyHisLeu 1×10^-4 M, pH 8.0, 37° C, read-out: I50
T1 construct: ACE purified from human urine; from tissue; host or cells: human urine
T1 sequence (P12821 30-1232 limits assumed): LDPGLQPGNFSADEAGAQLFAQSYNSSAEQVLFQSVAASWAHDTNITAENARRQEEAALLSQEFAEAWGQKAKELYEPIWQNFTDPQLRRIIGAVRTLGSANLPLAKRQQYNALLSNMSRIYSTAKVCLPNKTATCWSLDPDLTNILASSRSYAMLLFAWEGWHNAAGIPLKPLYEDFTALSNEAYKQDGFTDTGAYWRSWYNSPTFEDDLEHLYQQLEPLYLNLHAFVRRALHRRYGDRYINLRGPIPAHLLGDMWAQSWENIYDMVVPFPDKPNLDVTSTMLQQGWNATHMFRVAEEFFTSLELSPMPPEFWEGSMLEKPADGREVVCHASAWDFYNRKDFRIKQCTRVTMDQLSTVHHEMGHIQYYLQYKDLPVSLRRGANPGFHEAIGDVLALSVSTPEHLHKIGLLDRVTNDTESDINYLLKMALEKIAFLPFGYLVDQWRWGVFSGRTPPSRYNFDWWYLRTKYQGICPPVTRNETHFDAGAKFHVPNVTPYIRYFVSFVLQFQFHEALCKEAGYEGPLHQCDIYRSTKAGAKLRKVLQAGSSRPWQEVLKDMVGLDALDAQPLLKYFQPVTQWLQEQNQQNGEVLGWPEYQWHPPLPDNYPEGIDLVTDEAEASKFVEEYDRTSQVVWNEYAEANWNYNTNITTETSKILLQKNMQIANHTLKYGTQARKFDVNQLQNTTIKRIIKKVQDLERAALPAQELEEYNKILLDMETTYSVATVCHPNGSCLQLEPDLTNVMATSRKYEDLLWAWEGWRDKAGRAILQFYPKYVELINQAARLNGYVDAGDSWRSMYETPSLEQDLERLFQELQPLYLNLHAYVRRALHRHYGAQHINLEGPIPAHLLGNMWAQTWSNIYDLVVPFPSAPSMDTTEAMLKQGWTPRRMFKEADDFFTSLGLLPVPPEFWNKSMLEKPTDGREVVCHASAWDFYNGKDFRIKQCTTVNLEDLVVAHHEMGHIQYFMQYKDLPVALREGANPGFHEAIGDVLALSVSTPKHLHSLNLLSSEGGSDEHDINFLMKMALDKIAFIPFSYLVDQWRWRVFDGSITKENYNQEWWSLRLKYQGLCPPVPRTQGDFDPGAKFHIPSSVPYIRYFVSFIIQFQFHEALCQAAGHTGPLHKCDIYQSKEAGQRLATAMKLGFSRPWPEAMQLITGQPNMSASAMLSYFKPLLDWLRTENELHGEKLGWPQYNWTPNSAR
Source text: The role of ACE in the pathogenesis of hypertension has prompted a search for inhibitors of the enzyme that could act as antihypertensive drugs. See for example U.S. Pat. Nos. 3,891,616, 3,947,575, 4,052,511 and 4,053,651. […]. No. 4,046,889 to Ondetti et al., issued Sept. 6, 1977, and in scientific articles by Cushman, D. W. et al., Biochemistry 16, 5484 (1977), and by Ondetti, M. et al., Science 196, 441 (1977). […]. These factors include the source of enzyme, its purity, the substrate used and its concentration, and the composition of the assay buffer. All I50 data reported herein have been performed with the same assay system and same enzyme (human urinary ACE) and with an approximately 1/2 Km level of substrate and are therefore internally consistent. Discrepancies with data obtained by other workers may be observed. Indeed such discrepancies do exist in the literature, for unknown reasons. See, for example, the I50 values for BPP9a reported by Cushman, D. W., et al., Experientia 29, 1032 (1973) and by Dorer, F. E., et al., Biochim.Biophys.Acta 429, 220 (1976).
For most experiments described herein, the enzyme was assayed in 0.05M Hepes buffer, pH 8.0 containing 0.1M NaCl and 0.75M Na2 SO4. […]
The inhibitory potency of N^α-[ 3-(N^α -benzoylglycylthio)-2-D-L-proline in vitro was measured in the assay described in Example 1. […]

[2] = test system: mean arterial blood pressure response to angiotensin I; experiment: Intravenous effectiveness: blood pressure response to angiotensin I in anesthetized rats; type: in vivo, rat; details: i.v.; angiotensin I 400 ng/kg
Description: Rats (210-290 g body weight) were fasted overnight and then anesthetized with intraperitoneal pentobarbital, 50-60 mg/kg. Tracheostomy was performed and the animals were ventilated mechanically. A cannula was inserted into a femoral vein for injection of angiotensin I, and a second cannula was inserted into a common carotid artery for direct measurement of arterial blood pressure. Heparin, 1,000 units, was injected via the femoral vein to prevent coagulation. Blood pressure was measured with a pressure transducer connected to a polygraph. The rats were injected with […] of angiotensin I in 20 μl of 0.9 g % NaCl; an amount of angiotensin I sufficient to raise mean arterial blood pressure by 38 mm Hg. After the responsiveness of a given rat to angiotensin I was established, the named compound at 20 μmol/kg (drug dissolved in 0.15 ml of H2 O plus 10 μl of 1N NaHCO3), was given via a stomach tube. At timed intervals, the effects of 400 ng/kg of angiotensin I on mean arterial blood pressure were tested. Results are shown below:
Intravenous Effectiveness of N^α -[3-(N^α -benzoylglycylthio)-2-D-methylpropanoyl)-L-proline. Anesthetized rats were prepared as described in Example 20. The animals were administered the named compound via a femoral vein in 15 μl of 0.01 N sodium bicarbonate, after the control response to 400 ng/kg of angiotensin I was measured. […]

[3] = test system: mean arterial blood pressure response to angiotensin I; experiment: Oral effectiveness: blood pressure response to angiotensin I in anesthetized rats; type: in vivo, rat; details: angiotensin I 400 ng/ml in 20 μl of 0.9 g % NaCl (table: 400 ng/kg); control response before drug
Description: Rats (210-290 g body weight) were fasted overnight and then anesthetized with intraperitoneal pentobarbital, 50-60 mg/kg. Tracheostomy was performed and the animals were ventilated mechanically. A cannula was inserted into a femoral vein for injection of angiotensin I, and a second cannula was inserted into a common carotid artery for direct measurement of arterial blood pressure. Heparin, 1,000 units, was injected via the femoral vein to prevent coagulation. Blood pressure was measured with a pressure transducer connected to a polygraph. The rats were injected with 400 ng/ml of angiotensin I in 20 μl of 0.9 g % NaCl; an amount of angiotensin I sufficient to raise mean arterial blood pressure by 38 mm Hg. After the responsiveness of a given rat to angiotensin I was established, the named compound at 20 μmol/kg (drug dissolved in 0.15 ml of H2 O plus 10 μl of 1N NaHCO3), was given via a stomach tube. At timed intervals, the effects of 400 ng/kg of angiotensin I on mean arterial blood pressure were tested.

Row | Compound | pIC50 [1] | Blood pressure response to angiotensin I after intravenous administration (in words) [2] | Increase of mean arterial blood pressure by angiotensin I [3] [mm Hg]
1 | C[C@H](CSC(=O)CNC(=O)c1ccccc1)C(=O)N1CCC[C@H]1C(=O)O [Example 13, N^α -[3-(N^Δ -benzoylglycylthio)-2-D-methylpropanoyl]-L-proline] | 8.12 | rapid decrease of blood pressure response to angiotensin I, 400 ng/kg followed by a gradual rise to the pretreatment level of responsiveness | –
2 | angiotensin I: decapeptide angiotensin I, having the sequence AspArgValTyrlleHisProPheHisLeu (DRVYIHPFHL; Angiotensin-1; UniProt P01019 25-34, looked up) | – | – | 38
